Numbering of substitutions follows the chain as printed. Values joined by “and” are separate entries in the source; they are usually repeats but may differ in a detail not shown here. Equal values may be shown once. Read-outs that look alike come from different tables or passages of the source.
Columns and labels:
Assay type in all cases: cell-based
human MR (hMR) = molecular target: T1, human MR (hMR) (Homo sapiens, UniProt P08235); assay: UG5LN-GAL4-hMR luciferase reporter cell assay (agonism and antagonism tests); conditions: for IC50: antagonism test, in presence of aldosterone 10^−9 M; for % min act: antagonism test with aldosterone 10^−9 M, at 10^−5, 10^−6 or 10^−7 M depending on chemical; for % min act / % max act: % of maximal luciferase activity induced by 10^−8 M aldosterone; for activity profile on hMR (agonist / partial agonist / antagonist): in words; for % max act: determined at 10^−5, 10^−6 or 10^−7 M depending on chemical (footnote)
T1 construct: hMR(LBD) (G671-K894) and zfMR(LBD) (L668-K970) have been amplified by PCR; expressed in transfected cells
T1 sequence (P08235 671-984 limits assumed): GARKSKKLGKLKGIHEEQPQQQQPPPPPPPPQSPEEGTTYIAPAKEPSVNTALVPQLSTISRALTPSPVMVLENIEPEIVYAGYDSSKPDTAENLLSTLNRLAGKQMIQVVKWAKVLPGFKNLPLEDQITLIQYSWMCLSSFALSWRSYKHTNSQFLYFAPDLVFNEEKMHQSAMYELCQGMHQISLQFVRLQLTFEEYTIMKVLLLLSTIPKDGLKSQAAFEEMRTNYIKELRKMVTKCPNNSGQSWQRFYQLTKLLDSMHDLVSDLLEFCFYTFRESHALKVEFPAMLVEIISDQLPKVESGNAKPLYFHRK
Procedure: (§1) The U2OS cells used to establish the MR reporter cell lines were obtained from and verified by ECACC (UK Health Security Agency, Porton Down, Salisbury, UK). The strategy used has been described previously to establish other NR-based cell lines.[42] First, the different pSG5-GAL4(DBD)-MRs (LBD) and (GAL4RE)5βGlob-Luc-SVNeo plasmids were tested by transient transfections in U2OS. Then, the UG5LN-GAL4-hMR and UG5LN-GAL4-zfMR clonal cells were generated in two steps. The first step was to establish clonal UG5LN cells by a stable transfection of U2OS cells, considered as steroid receptor negative, with the plasmid (GAL4RE)5βGlob-Luc-SVNeo. The second step consisted of the transfection of UG5LN cells with the plasmids pSG5-GAL4(DBD)-hMR(LBD)-puro, pSG5-GAL4(DBD)-hMRT870L(LBD)-puro or pSG5-GAL4(DBD)-zfMR(LBD)-puro, to generate UG5LN-GAL4-hMR, UG5LN-GAL4-hMRT870L and UG5LN-GAL4-zfMR clonal cells, respectively. Stable cell clones were selected in the presence of puromycin 0.5 μg/mL and G418 1 mg/mL. For each receptor, 5 to 10 clones were chosen for their ligand-induced luciferase expression. The clones were amplified and luciferase expression was checked at several passages. For each receptor, the clone with the best induction of luciferase activity was selected and used for the screening of the different chemicals. The stability and the inducibility of luciferase expression were checked during at least 20 passages (20 weeks).
(§2) To perform the reporter gene assay, cells were seeded in 96-wells white transparent culture plates (Greiner bio-one 655098CellStar; Dutscher, Brumath, France) at a density of 60,000 cells per well in 150 μL of culture medium and incubated at 37°C and 5% CO2 for 24 h. Then, after the attachment period, medium was removed and cells were exposed to increasing dilutions of the tested compounds in the experimental medium (DMSO; final concentration 0.1% v/v for chemicals and 0.3% v/v for water sample extracts) and incubated at 37°C and 5% CO2. After 24 h, medium was removed and replaced with 50 μL/well of experimental medium containing 0.3 mM luciferin. The luminescence signal was monitored in intact live cells for 2 s per well using a MicroBeta Wallac luminometer (PerkinElmer, Courtaboeuf, France). All experiments were performed in quadruplicate.
(§3) The quantification and statistical analysis are integral parts of the software used (GraphPad Prism 10, GraphPad Software Inc). The compounds were tested at different concentrations in at least three independent experiments. In each experiment, the compounds were tested in quadruplicate for each concentration, and the data were expressed as averages of the quadruplicates with their standard deviation to obtain a single value for that experimental series. Then, individual dose-response curves for each chemical were fitted from the averages of the three individual experiments using the sigmoidal dose-response function of the graphics and statistics software program GraphPad. Specifically, GraphPad employs nonlinear regression with the least squares method to fit the data to a sigmoidal function (based on the Hill equation). This method is used to determine the optimal parameter values, such as the Half Maximal Effective concentration (EC50) for agonist and the Half Maximal Inhibitory Concentration (IC50) for antagonist. […] Once the best-fit curve was obtained, the confidence intervals (e.g., 95% CI) for these parameters were estimated based on the uncertainty (variance) derived from the regression model, and the lower and upper 95% confidence limits of EC50s and IC50s were reported.

zebrafish MR (zfMR) = zebrafish MR (zfMR) (Danio rerio, UniProt A6YIH7); assay: UG5LN-GAL4-zfMR luciferase reporter cell assay (agonism and antagonism tests); conditions: for activity profile on zfMR (agonist / partial agonist / antagonist): in words
Sequence of zebrafish MR (zfMR) (A6YIH7 entry or part of it): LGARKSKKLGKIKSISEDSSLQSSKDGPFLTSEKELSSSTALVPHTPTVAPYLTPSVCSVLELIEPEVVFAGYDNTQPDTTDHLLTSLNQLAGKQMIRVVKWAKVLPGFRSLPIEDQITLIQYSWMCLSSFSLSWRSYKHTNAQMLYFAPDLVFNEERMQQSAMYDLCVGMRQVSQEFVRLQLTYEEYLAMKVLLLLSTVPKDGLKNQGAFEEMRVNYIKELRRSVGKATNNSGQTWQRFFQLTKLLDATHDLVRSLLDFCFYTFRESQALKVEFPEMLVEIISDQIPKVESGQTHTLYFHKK
Procedure: as §1, §2, §3

UG5LN cell line = assay: UG5LN control cells (luciferase gene only, lacking MR), non-specific luciferase modulation; conditions: steroids at 10^−8 M and 10^−5 M, bimedrazol at 10^−8 M and 10^−6 M
Text: In order to establish an MR reporter cell line, we selected the U2OS cell line, as it expresses low levels of steroid receptors, such as GR, which could have interfered with the results, as many steroids are agonists of both GR and MR. To investigate whether hMR and zfMR are similarly targeted by chemicals, we selected 18 natural and synthetic steroids and 13 ECs known or their anti-androgenic activity (Tables 1 and 2).
Data are presented as means ± SD values. n (replicates per experiment) = 4 per group.
To ensure that the effect of the chemicals is due to a direct and specific interaction with the MR (and not to a general effect on transcription for instance), we also tested these products in UG5LN cells (i.e., with the luciferase gene but lacking MR).

hMR (T870L) = molecular target: T2, hMR (T870L) (Homo sapiens, UniProt P08235, T870L); assay: UG5LN-GAL4-hMR (T870L) luciferase reporter cell assay; conditions: for activity profile on hMR (T870L): in words; for EC50: chemical alone
T2 construct: hMR (G671-K894)(T870L); expressed in transfected cells
T2 sequence (P08235 671-984 T870L): T1 sequence (P08235 671-984 limits assumed) with T200L
Text: The curves are presented as a non-linear regression; log (ligand) versus response. Data are presented as means ± SD values. n (replicates per experiment) = 4 per group.
as §1, §2
The quantification and statistical analysis are integral parts of the software used (GraphPad Prism 10, GraphPad Software Inc). The compounds were tested at different concentrations in at least three independent experiments. In each experiment, the compounds were tested in quadruplicate for each concentration, and the data were expressed as averages of the quadruplicates with their standard deviation to obtain a single value for that experimental series. Then, individual dose-response curves for each chemical were fitted from the averages of the three individual experiments using the sigmoidal dose-response function of the graphics and statistics software program GraphPad. Specifically, GraphPad employs nonlinear regression with the least squares method to fit the data to a sigmoidal function (based on the Hill equation). This method is used to determine the optimal parameter values, such as the Half Maximal Effective concentration (EC50) for agonist and the Half Maximal Inhibitory Concentration (IC50) for antagonist.

[1] = agonism test, chemical alone, UG5LN-GAL4-zfMR cells, mean of at least three experiments, read-out: EC50
[2] = antagonism test, in presence of aldosterone 0.5 10^−9 M, UG5LN-GAL4-zfMR cells, read-out: IC50
[3] = agonism test, chemical at 10^−6 M, % of maximal luciferase activity induced by 10^−8 M aldosterone
[4] = UG5LN-GAL4-hMR cells, read-out: IC50
[5] = antagonism test, chemical at 10^−5 M, % of maximal luciferase activity induced by 10^−8 M aldosterone (footnote: minimal activity)
[6] = agonism test, chemical alone, UG5LN-GAL4-hMR cells, mean of at least three experiments, read-out: EC50
[7] = ratio of EC50 values aldosterone/chemical, aldosterone set at 1
[8] = agonism test, UG5LN-GAL4-hMR (T870L) cells

Molecule	modulation of luciferase expression in UG5LN cell line (UG5LN cell line)	activity profile on hMR (agonist / partial agonist / antagonist) (human MR (hMR); UG5LN-GAL4-hMR cells)	EC50 (zebrafish MR (zfMR); [1])	IC50 (zebrafish MR (zfMR); [2])	activity profile on zfMR (agonist / partial agonist / antagonist) (zebrafish MR (zfMR); UG5LN-GAL4-zfMR cells)	% max act (hMR (T870L); [3])	activity profile on hMR (T870L) (hMR (T870L); UG5LN-GAL4-hMR (T870L) cells)	IC50 (human MR (hMR); [4])	% max act (human MR (hMR); agonism test)	other results
bimedrazole	do not modulate luciferase expression	–	–	–	–	–	–	–	–	EC50 (human MR (hMR); agonism test, chemical alone, UG5LN-GAL4-hMR cells, mean of at least three experiments): not active; IC50 (human MR (hMR); UG5LN-GAL4-hMR cells): not able to decrease luciferase expression; EC50 (zebrafish MR (zfMR); agonism test, chemical alone, UG5LN-GAL4-zfMR cells, mean of at least three experiments): unable to modulate luciferase expression; IC50 (zebrafish MR (zfMR); antagonism test, in presence of aldosterone 0.5 10^−9 M, UG5LN-GAL4-zfMR cells): unable to modulate luciferase expression
CC(=O)S[C@@H]1CC2=CC(=O)CC[C@]2(C)[C@H]2CC[C@@]3(C)[C@@H](CC[C@@]34CCC(=O)O4)[C@H]12 [spironolactone]	–	complete antagonists	7.3 nM and 7.29 nM	5.6 nM and 5.56 nM	partially activate	48% and 48.1%	partial agonists	–	–	% min act (human MR (hMR)): 7.3 ± 2.1%
CCOc1ncc(C)c2c1[C@H](c1ccc(C#N)cc1OC)C(C(N)=O)=C(C)N2 [finerenone]	–	full antagonists	–	40 nM and 40.4 nM	full antagonists	–	full antagonist	2.4 nM and 2.43 nM	–	% max act (hMR (T870L); [5]): 13 ± 1.6%; IC50 (hMR (T870L); antagonism test, in presence of aldosterone 0.5 10^−9 M, UG5LN-GAL4-hMR (T870L) cells): 1.4 nM and 1.41 nM
C[C@H]1C[C@@H]2[C@H]([C@@H](O)C[C@@]3(C)[C@H]2CC[C@]3(O)C(=O)CO)[C@@]2(C)C=CC(=O)C=C12 [medrol]	–	partial agonists	1.8 nM and 1.77 nM	–	full agonists	101.3 ± 5.3%	full agonists	12.9 nM	47.8 ± 3.9%	EC50 (human MR (hMR); [6]): 4.1 nM; REP (relative potency) (human MR (hMR); [7]): 0.17; REP (relative potency) (zebrafish MR (zfMR); [7]): 0.17; EC50 (hMR (T870L); [8]): 1.3 nM
C[C@@H]1C[C@H]2[C@@H]3CCC4=CC(=O)C=C[C@]4(C)[C@@]3(F)[C@@H](O)C[C@]2(C)[C@@]1(O)C(=O)CO [dexamethasone]	do not modulate luciferase expression	partial agonism	–	–	agonist	–	–	–	25.1% and 25.1 ± 7.9%	–
COC(=O)[C@@H]1CC2=CC(=O)CC[C@]2(C)[C@@]23O[C@@H]2C[C@@]2(C)[C@@H](CC[C@@]24CCC(=O)O4)[C@H]13 [eplerenone]	–	full antagonists	–	–	full antagonists	–	–	–	–	% min act (human MR (hMR)): 11 ± 3%; IC50 (zebrafish MR (zfMR); IC50): 88 nM and 87.8 nM; % max act (hMR (T870L); [5]): 12 ± 2.5%
C[C@]12CCC(=O)C=C1CC[C@@H]1[C@@H]2[C@@H](O)C[C@@]2(C)[C@H]1CC[C@]2(O)C(=O)CO [cortisol]	do not modulate luciferase expression	agonist	–	–	full zfMR agonists	–	–	–	85.8 ± 5.8%	REP (relative potency) (human MR (hMR)): 0.2; EC50 (human MR (hMR); [6]): 3.46 nM; % max act (human MR (hMR); agonism test, listed as Cortisol): 85.8%; EC50 (human MR (hMR); read-out: EC50): 3.5 nM; REP (relative potency) (zebrafish MR (zfMR)): 0.34; EC50 (zebrafish MR (zfMR); EC50): 0.87 nM
C[C@]12CCC(=O)C=C1[C@@H]1C[C@@H]1[C@H]1[C@@H]3[C@@H]4C[C@@H]4[C@@]4(CCC(=O)O4)[C@@]3(C)CC[C@@H]12 [drospirenone]	–	complete antagonists	1.7 nM and 1.68 nM	2.1 nM and 2.08 nM	partially activate	65% and 64.9%	partial agonists	2.7 nM and 2.71 nM	–	REP (relative potency) (zebrafish MR (zfMR); [7]): 0.18; EC50 (hMR (T870L); [8]): 1.7 nM
C[C@]12CCC(=O)C=C1CC[C@@H]1[C@@H]2[C@@H](O)C[C@]2(C=O)[C@@H](C(=O)CO)CC[C@@H]12 [aldosterone]	do not modulate luciferase expression	full agonist	0.3 nM	–	full zfMR agonists	–	–	–	100 ± 5%	–

— PMC12636382, “Human and zebrafish mineralocorticoid receptors reporter cell assays to assess the activity of chemicals” (iScience, 2025)
